How the values were obtained:
[1] = in vitro; settings: rat
[2] = PAMPA
[3] = in vitro; settings: PAMPA
[4] = rat, microsomes

O=C(Nc1c(Cl)cc([N+](=O)[O-])cc1Cl)c1cc(Cl)ccc1O
half-life ([1]; liver microsomes): 20 min

COc1ccc(Cl)cc1C(=O)Nc1ccc([N+](=O)[O-])cc1Cl
half-life ([1]; liver microsomes): 27 min
permeability [2]: 1007 10^-6 cm/s

O=C(Nc1ncc([N+](=O)[O-])s1)c1cc(Cl)ccc1O
half-life ([1]; liver microsomes): 3 min
Papp [3]: 37 ×10⁻⁶ cm/s

O=C(Nc1ccc([N+](=O)[O-])cc1)c1cc(Cl)ccc1O
Stabilty [4]: 22 min
permeability [2]: 127.1 10^-6 cm/s

O=C(Nc1ccc(Cl)cc1)c1cc(Cl)ccc1O
half-life ([1]; liver microsomes): 14 min
Papp [3]: 297 ×10⁻⁶ cm/s

O=C(Nc1ccc(C(F)(F)F)cc1)c1cc(Cl)ccc1O
half-life ([1]; liver microsomes): > 30 min
Papp [3]: < 22.3 ×10⁻⁶ cm/s

Nc1ccc(NC(=O)c2cc(Cl)ccc2O)c(Cl)c1
half-life ([1]; liver microsomes): 30 min
Papp [3]: 152 ×10⁻⁶ cm/s

Cc1ccc(O)c(C(=O)Nc2ccc([N+](=O)[O-])cc2Cl)c1
half-life ([1]; liver microsomes): 19.5 min
Papp [3]: 134 ×10⁻⁶ cm/s

O=C(Nc1ccc(F)cc1)c1cc(Cl)ccc1O
half-life ([1]; liver microsomes): 18.4 min
permeability [2]: 390.8 10^-6 cm/s

COc1ccc(NC(=O)c2cc(Cl)ccc2O)cc1
half-life ([1]; liver microsomes): 3.3 min
Papp [3]: 81 ×10⁻⁶ cm/s

O=C(Nc1ccc(C(F)(F)F)cc1Cl)c1cc(Cl)ccc1O
half-life ([1]; liver microsomes): > 30 min

O=C(Nc1ccc(F)cc1F)c1cc(Cl)ccc1O
half-life ([1]; liver microsomes): 18 min

O=C(Nc1c(F)cccc1F)c1cc(Cl)ccc1O
half-life ([1]; liver microsomes): > 30 min
Papp [3]: 32 ×10⁻⁶ cm/s

O=C(Nc1ccc(F)c(Cl)c1)c1cc(Cl)ccc1O
half-life ([1]; liver microsomes): 11 min

O=C(Nc1ccccc1C(F)(F)F)c1cc(Cl)ccc1O
half-life ([1]; liver microsomes): 15 min
Papp [3]: 26 ×10⁻⁶ cm/s

O=C(Nc1ccc([N+](=O)[O-])cc1Cl)c1cc(Cl)ccc1OC1CCNCC1
half-life ([1]; liver microsomes): > 30 min
Papp [3]: 517 ×10⁻⁶ cm/s

NCCOc1ccc(Cl)cc1C(=O)Nc1ccc([N+](=O)[O-])cc1Cl
half-life ([1]; liver microsomes): > 30 min
permeability [2]: 1023 10^-6 cm/s

O=C(Nc1ccccc1[N+](=O)[O-])c1cc(Cl)ccc1O
Papp [3]: 153 ×10⁻⁶ cm/s

CC(=O)Nc1ccc(NC(=O)c2cc(Cl)ccc2O)c(Cl)c1
half-life ([1]; liver microsomes): > 30 min
Papp [3]: 87 ×10⁻⁶ cm/s

Cc1ccc(NC(=O)c2cc(Cl)ccc2O)cc1
half-life ([1]; liver microsomes): 1.6 min
Papp [3]: 21 ×10⁻⁶ cm/s

O=C(Nc1ccc([N+](=O)[O-])cc1Cl)c1ccc2ccccc2c1O
half-life ([1]; liver microsomes): 16.6 min
Papp [3]: 90.2 ×10⁻⁶ cm/s

O=C(Nc1ccc(C(F)(F)F)cc1)c1cc(Br)ccc1O
half-life ([1]; liver microsomes): > 30 min

O=C(Nc1ccccc1Cl)c1cc(Cl)ccc1O
half-life ([1]; liver microsomes): 19 min
permeability [2]: 118 10^-6 cm/s

O=C(Nc1ccc(Cl)cc1Cl)c1cc(Cl)ccc1O
half-life ([1]; liver microsomes): > 30 min
Papp [3]: < 22.4 ×10⁻⁶ cm/s

O=C(Nc1c(Cl)cccc1Cl)c1cc(Cl)ccc1O
half-life ([1]; liver microsomes): 24 min
Papp [3]: 73 ×10⁻⁶ cm/s

O=C(Nc1ccc(F)cc1Cl)c1cc(Cl)ccc1O
half-life ([1]; liver microsomes): 19.3 min
Papp [3]: 50.5 ×10⁻⁶ cm/s

N#Cc1ccc(NC(=O)c2cc(Cl)ccc2O)c(Cl)c1
half-life ([1]; liver microsomes): > 30 min
Papp [3]: 5.1 ×10⁻⁶ cm/s

O=C(Nc1ccc([N+](=O)[O-])c(Cl)c1)c1cc(Cl)ccc1O
half-life ([1]; liver microsomes): 3.8 min
Papp [3]: 68 ×10⁻⁶ cm/s

O=C(Nc1ccncc1Cl)c1cc(Cl)ccc1O
half-life ([1]; liver microsomes): > 30 min
Papp [3]: 31 ×10⁻⁶ cm/s

COc1cc([N+](=O)[O-])ccc1NC(=O)c1cc(Cl)ccc1O
half-life ([1]; liver microsomes): > 30 min

O=C(Nc1ccc([N+](=O)[O-])cc1Cl)c1c(O)ccc2ccccc12
half-life ([1]; liver microsomes): 14.4 min
Papp [3]: 356 ×10⁻⁶ cm/s

CS(=O)(=O)Nc1ccc(Br)cc1C(=O)Nc1ccc([N+](=O)[O-])cc1Cl
half-life ([1]; liver microsomes): > 30 min
Papp [3]: 85.1 ×10⁻⁶ cm/s

CC(C)c1cnc(NC(=O)c2cc(Cl)ccc2O)s1
half-life ([1]; liver microsomes): 2 min
Papp [3]: 117 ×10⁻⁶ cm/s

COc1ccc(Cl)c(NC(=O)c2cc(Cl)ccc2O)c1
half-life ([1]; liver microsomes): 5.4 min
Papp [3]: 34 ×10⁻⁶ cm/s

N#Cc1ccc(NC(=O)c2ccc3ccccc3c2O)c(Cl)c1
half-life ([1]; liver microsomes): 27 min
Papp [3]: 111 ×10⁻⁶ cm/s

CN1CCC(NC(=O)c2cc(Cl)ccc2O)CC1
half-life ([1]; liver microsomes): 1.8 min
Papp [3]: 212 ×10⁻⁶ cm/s

CC(=O)c1ccc(O)c(C(=O)Nc2ccc([N+](=O)[O-])cc2Cl)c1
half-life ([1]; liver microsomes): > 30 min
Papp [3]: 33.1 ×10⁻⁶ cm/s

COc1cccc(NC(=O)c2cc(Cl)ccc2O)c1
half-life ([1]; liver microsomes): 4 min
Papp [3]: 43 ×10⁻⁶ cm/s

COc1cc([N+](=O)[O-])ccc1NC(=O)c1cc(Br)ccc1O
half-life ([1]; liver microsomes): > 30 min

O=C(Nc1ccc([N+](=O)[O-])c2ccccc12)c1cc(Cl)ccc1O
half-life ([1]; liver microsomes): 10.7 min
Papp [3]: 141 ×10⁻⁶ cm/s

O=C(Nc1ccc(C(F)(F)F)c(Cl)c1)c1cc(Br)ccc1O
half-life ([1]; liver microsomes): > 30 min
Papp [3]: 23.2 ×10⁻⁶ cm/s

CC(=O)Nc1ccccc1C(=O)Nc1ccc([N+](=O)[O-])cc1Cl
Papp [3]: 431 ×10⁻⁶ cm/s

N#Cc1ccc(NC(=O)c2cc(-c3ccc(F)cc3F)ccc2O)c(Cl)c1
half-life ([1]; liver microsomes): > 30 min

CN(C)C(=O)c1cccc(NC(=O)c2cc(Cl)ccc2O)c1
half-life ([1]; liver microsomes): 26 min
Papp [3]: 5 ×10⁻⁶ cm/s

O=C(Nc1ccc([N+](=O)[O-])cc1Cl)c1cc(Cl)ccc1NS(=O)(=O)c1ccccc1
half-life ([1]; liver microsomes): > 30 min
permeability [2]: 2250 10^-6 cm/s

O=C(Nc1ccc([N+](=O)[O-])cc1Cl)c1cnc2ccccc2c1O
half-life ([1]; liver microsomes): 18 min
Papp [3]: 499 ×10⁻⁶ cm/s

O=C(Nc1ccc([N+](=O)[O-])cc1Cl)c1cc(-c2ccc(F)cc2F)ccc1O
half-life ([1]; liver microsomes): > 30 min
Papp [3]: < 23.7 ×10⁻⁶ cm/s

Nc1cccc(Cl)c1C(=O)Nc1ccc([N+](=O)[O-])cc1Cl
half-life ([1]; liver microsomes): 2.2 min
Papp [3]: 450 ×10⁻⁶ cm/s

O=C(Nc1ccc([N+](=O)[O-])c(Cl)c1)c1cc(Br)ccc1O
half-life ([1]; liver microsomes): 20.3 min

N#Cc1ccc(NC(=O)c2cccc3cc[nH]c23)c(Cl)c1
half-life ([1]; liver microsomes): 15 min
Papp [3]: 553 ×10⁻⁶ cm/s

NS(=O)(=O)c1ccc(NC(=O)c2cc(Cl)ccc2O)cc1
half-life ([1]; liver microsomes): > 30 min
Papp [3]: < 1 ×10⁻⁶ cm/s

O=C(Nc1c(Cl)cc(F)cc1Cl)c1cc(Cl)ccc1O
half-life ([1]; liver microsomes): 13 min
Papp [3]: 25 ×10⁻⁶ cm/s

Nc1ccc(Cl)cc1C(=O)Nc1ccc([N+](=O)[O-])cc1Cl
half-life ([1]; liver microsomes): 8.7 min
Papp [3]: 671 ×10⁻⁶ cm/s

O=C(Nc1ccc([N+](=O)[O-])cc1Cl)c1cc([N+](=O)[O-])ccc1O
half-life ([1]; liver microsomes): > 30 min
Papp [3]: 30.3 ×10⁻⁶ cm/s

O=C(Nc1ccc2cc([N+](=O)[O-])ccc2c1)c1cc(Cl)ccc1O
half-life ([1]; liver microsomes): > 30 min
Papp [3]: 447 ×10⁻⁶ cm/s

O=C(Nc1ccc([N+](=O)[O-])cc1Cl)c1c(O)cccc1O
half-life ([1]; liver microsomes): 26.2 min

O=C(Nc1ccc(C(F)(F)F)cc1Cl)c1ccc2ccccc2c1O
half-life ([1]; liver microsomes): > 30 min

O=C(Nc1ccc(C(F)(F)F)c(F)c1)c1cc(Br)ccc1O
half-life ([1]; liver microsomes): > 30 min

O=C(Nc1ccc([N+](=O)[O-])cc1Cl)c1ccc(Cl)cc1O
half-life ([1]; liver microsomes): 21.2 min

O=C(Nc1ccc(C(F)(F)F)cc1Cl)c1cc(-c2ccc(F)cc2F)ccc1O
half-life ([1]; liver microsomes): > 30 min

COc1ccc(C(=O)Nc2ccc([N+](=O)[O-])cc2Cl)c(O)c1
half-life ([1]; liver microsomes): > 30 min
Papp [3]: < 3 ×10⁻⁶ cm/s

Cc1cccc(NC(=O)c2cc(Cl)ccc2O)c1C
half-life ([1]; liver microsomes): 9.4 min
Papp [3]: 48 ×10⁻⁶ cm/s

O=C(Nc1ccc([N+](=O)[O-])cc1Cl)c1cccc2cc[nH]c12
half-life ([1]; liver microsomes): > 30 min
permeability [2]: 1763 10^-6 cm/s

COc1ccc(O)c(C(=O)Nc2ccc([N+](=O)[O-])cc2Cl)c1
half-life ([1]; liver microsomes): 17.8 min
Papp [3]: 67.1 ×10⁻⁶ cm/s

O=C(Nc1ccc(C(F)(F)F)cc1Cl)c1cc(Br)ccc1O
half-life ([1]; liver microsomes): > 30 min

O=C(Nc1ccc([N+](=O)[O-])cc1Cl)c1cc(Br)ccc1O
half-life ([1]; liver microsomes): > 30 min
Papp [3]: 67.1 ×10⁻⁶ cm/s

O=C(Nc1ccc([N+](=O)[O-])cc1Cl)c1cc(Cl)ccc1O [NICLOSAMIDE]
half-life ([1]; microsomes): > 30 min
Papp [3]: < 1 ×10⁻⁶ cm/s

— ChEMBL document CHEMBL4819045 (Bioorg Med Chem Lett, 2021)
